Here are results for six compounds from US5767124A, “Polymorphic forms of a growth hormone secretagogue” (priority 1996, dated 1998).

Entries after “also recorded” stand apart in the source; their conditions may differ. Read-outs that look alike come from different tables or passages of the source.

Holding throughout (assay type): physicochemical
A short description of data set [1]: Solubility of CBZ-sulfonamide 1 in toluene/n-PrOH mixtures by HPLC assay. Particulars: 0% toluene in n-PrOH. Here is the method: The temperature of both the head and pot rose from 94° C. to 98° C. during the solvent switch. Toluene and n-PrOH form an azeotrope boiling at 97.2° C. composed of 47.5% toluene and 52.5% n-PrOH. The mixture was allowed to cool gradually to 20° C. over 3h and aged for 12 h. […] The solubility of the sulfonamide in various mixtures of toluene and n-PrOH has been determined by HPLC assay: […]

A short description of data set [2]: Hygroscopicity: storage of solid forms in constant relative humidity chambers. The following applies: for % Gain/Loss / change of sample on storage at high humidity (footnote): room temperature; for change of sample on storage at high humidity (footnote): Form II 48 hrs at 65-100% RH, Form I 96 hrs at 88 and 100% RH. The procedure: (§1) The total volatiles content (as established by TGA analysis) of solid samples of Forms I, II, III and IV upon exposure to various controlled humidities is tabulated below.
Hygroscopicity was assessed by storing the solid compound in constant relative humidity chambers. […] The results are tabulated below in Tables 1 and 2.

The nature of data set [3]: Total volatiles / water content (TGA) and water of hydration. The following applies: for moles of water per mole of compound: appears to be a hygroscopic hydrate.
Source text: as §1

A short description of data set [4]: Solubility of Forms I and II in water, buffer, ethanol/water and isopropanol. The procedure: The solubility of Form I in distilled water at room temperature is >100 mg/mL. The aqueous solubility (RT) of Form II in buffered solutions (pH 4-9) is >100 mg/mL. The solubility of Form I in ethanol/water mixtures is shown below: […]
Data set [5] can be described thus: Thermal stability of neat compound (solid state, HPLC). Particulars: for thermal stability in words: neat solid; for remaining at 1008 h: 6 Wks; for remaining at 1008 h / remaining at 2856 h: read-out: % Inital; for remaining at 2856 h: 17 Wks; for remaining at 168 h: 1 Wk; for remaining at 336 h: 2 Wks; for remaining at 672 h: 4 Wks; for remaining at 4032 h: 24 Wks; for remaining at 1344 h: 8 Wks. Here is the method:
The solid state stability of neat compound was assessed by storage of the drug in glass screw-cap vials in the dark. Samples were assayed by HPLC and the parent compound was quantitatively analyzed. The isocratic method that was employed is outlined below:
Column: Beckman Ultrasphere ODS (250×4.6 mm, 5 μ)
Mobile Phase: 0.1% TEA, pH 4.0 with H3 PO4 :Acetonitrile (65:35)
Detection Wavelength: 228 nm
Column Temperature: Ambient
Injection Volume: 20 μL of N-[I(R)-[(1,2-dihydro-1-methanesulfonyl-spiro[3H-indole-3,4'-piperdin]-1'- yl)carbonyl]-2-(phenylmethyl-oxy)ethyl]-2-amino-2-methylpropanamide methanesulfonate (50 μg/mL)
The results shown below for Forms I and II were calculated as weight percent.

Another data set can be described thus: Bulk density. The following applies: compared with other forms.
[6] abbreviates: 65% RH, 48 hrs, footnote a = sample becomes a gummy semisolid.
The mark [7] stands for this setting: 76% RH, 48 hrs, footnote a = sample becomes a gummy semisolid.
The mark [8] stands for this setting: 100% RH, 48 hrs, footnotes a = gummy semisolid, b = converts to Form IV upon exposure to ambient humidity.
[9] abbreviates: solid state, 40 °C, in the dark.
[10] abbreviates: solid state, 60 °C, in the dark.
The mark [11] stands for this setting: solid state, 80 °C, in the dark.
Where [12] appears, read: solid state, 40 °C, in the dark, read-out: % Initial.
Setting [13] is: solid state, 60 °C, in the dark, read-out: % Initial.
Setting [14] is: solid state, 80 °C, in the dark, read-out: % Initial.

In the case of `CS(=O)(=O)N1CC2(CCN(C(=O)OCc3ccccc3)CC2)c2ccccc21` [Form 1, CBZ-Spiroindoline-methanesulfonamide], the “solubility of 1” value in data set [1] is on record as 2.36 mg/mL.

As for `CC(C)(N)C(=O)N[C@H](COCc1ccccc1)C(=O)N1CCC2(CC1)CN(S(C)(=O)=O)c1ccccc12` [Form I, N-[1(R)-[(1,2-dihydro-1-methanesulfonylspiro[3H-indole-3,4'-piperdin]-1'-yl)carbonyl]-2-(phenylmethyloxy)ethyl]-2-amino-2-methylpropanamide methanesulfonate], the hygroscopicity in words entry in data set [2] is “non-hygroscopic; also recorded: the wet crystals are very hygroscopic; also recorded: No substantial moisture increase is exhibited by Form I except when stored above 76% RH”. The “% Gain/Loss” value is reported as -0.02% in data set [2] (0% RH, 48 hrs); “+0.4%” in data set [2] (7% RH, 96 hrs); -0.05% in data set [2] (11% RH, 48 hrs); “+0.3%” in data set [2] (22% RH, 96 hrs); “+0.21%” in data set [2] (47% RH, 48 hrs); “+0.5%” in data set [2] (47% RH, 96 hrs). For the same compound, the “% Gain/Loss” value is on record as “+0.37%” in data set [2] (setting [6]); “+0.6%” in data set [2] (68% RH, 96 hrs); “+0.12%” in data set [2] (setting [7]); “+12.9%” in data set [2] (88% RH, 96 hrs, * = deliquescent material); greater than 12.0% in data set [2] (setting [8]); “+23.9%” in data set [2] (100% RH, 96 hrs, * = deliquescent material). Also, in data set [2], the “change of sample on storage at high humidity (footnote)” value is reported as “deliquescent material”. Moreover, the “water content (total volatiles by TGA)” value in data set [3] is given as 0.79 wt %. Besides, the “water content in words” value in data set [3] is listed as “relatively anhydrous”. Besides, the solubility in data set [4] (distilled water, water, room temperature, read-out: solubility in distilled water) is greater than 100 mg/mL; in data set [4] (ethanol/water 25/75, organic solvent or mixture, % Ethanol/H2O 25/75, read-out: Solubility in ethanol/water) it was greater than 100 mg/mL; in data set [4] (ethanol/water 50/50, organic solvent or mixture, % Ethanol/H2O 50/50, read-out: Solubility in ethanol/water), greater than 100 mg/mL; in data set [4] (ethanol/water 75/25, organic solvent or mixture, % Ethanol/H2O 75/25, read-out: Solubility in ethanol/water) it was greater than 90 mg/mL; in data set [4] (organic solvent or mixture, 100% ethanol, read-out: Solubility in ethanol) it was greater than 90 mg/mL. The compound also had a solubility in isopropanol in data set [4] of 4.6 mg/niL. For the same compound, in data set [5], the “thermal stability in words” value is “good thermal stability”. Moreover, the remaining at 1008 h in data set [5] (setting [9]) was found to be 100%; in data set [5] (setting [10]), 101%; in data set [5] (setting [11]) it was 101%. Further, the remaining at 2856 h in data set [5] (setting [9]) is 98.7%; in data set [5] (setting [10]), 101%; in data set [5] (setting [11]), 99.4%.

Regarding `CC(C)(N)C(=O)N[C@H](COCc1ccccc1)C(=O)N1CCC2(CC1)CN(S(C)(=O)=O)c1ccccc12` [Form II, N-[1(R)-[(1,2-dihydro-1-methanesulfonylspiro[3H-indole-3,4'-piperdin]-1'-yl)carbonyl]-2-(phenylmethyloxy)ethyl]-2-amino-2-methylpropanamide methanesulfonate], the hygroscopicity in words result in data set [2] was “hygroscopic and exhibits a large increase in moisture starting at 65% RH”. For the same compound, the “% Gain/Loss” value in data set [2] (0% RH, 48 hrs) is listed as “+0.08%”; in data set [2] (11% RH, 48 hrs), “+0.02%”; in data set [2] (33% RH, 48 hrs) it was “+0.33%”; in data set [2] (47% RH, 48 hrs) it was “+0.39%”; in data set [2] (setting [6]), greater than 10.0%; in data set [2] (setting [7]) it was greater than 10.0%. For the same compound, in data set [2] (setting [8]), the “% Gain/Loss” value is on record as greater than 10.0%. Also, the “change of sample on storage at high humidity (footnote)” value in data set [2] is on record as “Sample becomes a gummy semisolid; also recorded: Converts to Form IV upon exposure to ambient humidity”. For the same compound, the “water content (total volatiles by TGA)” value in data set [3] was determined as 0.56 wt %. Further, the solubility in data set [4] (buffer ph 4-9, RT, pH 4-9, read-out: aqueous solubility in buffered solutions) is greater than 100 mg/mL. Further, the “solubility in IPA” value in data set [4] (crystalline material from EtOAc-EtOH) is on record as 12 mg/mL. Also, the solubility in isopropanol in data set [4] is reported as 12.3 mg/mL. Besides, the “% Initial” value in data set [5] (80 °C, 12 Wks, in the dark, 120960 min) is 100.4%. For the same compound, the “thermal stability in words” value in data set [5] is given as “good thermal stability”. The results for the remaining at 168 h in data set [5] (setting [12]), in data set [5] (setting [13]) and in data set [5] (setting [14]) were 99.7%, 99.4% and 99.2%, respectively. The remaining at 336 h in data set [5] (setting [12]) amounted to 101%; in data set [5] (setting [13]), 99.6%; in data set [5] (setting [14]), 100%. For the same compound, the remaining at 672 h amounted to 99.5% in data set [5] (setting [12]), 100% in data set [5] (setting [13]) and 99.2% in data set [5] (setting [14]). The values for the remaining at 4032 h in data set [5] (setting [12]) and in data set [5] (setting [13]) were 100% and 101%, respectively. In addition, the remaining at 1344 h in data set [5] (setting [13]) was determined as 100%; in data set [5] (setting [14]) it was 99.8%. Besides, in data set [5] (solid state, 60 °C, 12 Wks, in the dark, read-out: % Initial), the remaining at 2016 h is 101%.

In the case of `CC(C)(N)C(=O)N[C@H](COCc1ccccc1)C(=O)N1CCC2(CC1)CN(S(C)(=O)=O)c1ccccc12` [Form III, N-[1(R)-[(1,2-dihydro-1-methanesulfonylspiro[3H-indole-3,4'-piperdin]-1'-yl)carbonyl]-2-(phenylmethyloxy)ethyl]-2-amino-2-methylpropanamide methanesulfonate], the hygroscopicity in words result in data set [2] is given as “shows an increase in moisture after 48-hr storage at 33% RH”. Further, the “% Gain/Loss” value in data set [2] (11% RH, 48 hrs) is -0.15%; in data set [2] (33% RH, 48 hrs) it was “+2.23%”; in data set [2] (47% RH, 48 hrs), “+3.99%”; in data set [2] (setting [7]) it was “+3.76%”. In addition, the “water content (total volatiles by TGA)” value in data set [3] is listed as 4.5-5.0 wt %.

Regarding `CC(C)(N)C(=O)N[C@H](COCc1ccccc1)C(=O)N1CCC2(CC1)CN(S(C)(=O)=O)c1ccccc12` [Form IV, N-[1(R)-[(1,2-dihydro-1-methanesulfonylspiro[3H-indole-3,4'-piperdin]-1'-yl)carbonyl]-2-(phenylmethyloxy)ethyl]-2-amino-2-methylpropanamide methanesulfonate], the “% Gain/Loss” value was -7.8% in data set [2] (0% RH, 48 hrs); -4.9% in data set [2] (11% RH, 48 hrs); “+0.3%” in data set [2] (33% RH, 48 hrs); “+0.7%” in data set [2] (47% RH, 48 hrs); “+1.4%” in data set [2] (66% RH, 48 hrs); “+1.5%” in data set [2] (setting [7]). Besides, the “% Gain/Loss” value in data set [2] (setting [8]) is listed as “+5.3%”. Besides, the “water content (total volatiles by TGA)” value in data set [3] was 9.5-10.0 wt %. The “moles of water per mole of compound” value in data set [3] was 3.5 moles of water per mole. Also, in “Bulk density”, the bulk density result is listed as “higher bulk density than other forms”.

Turning to `CC(C)(N)C(=O)N[C@H](COCc1ccccc1)C(=O)N1CCC2(CC1)CN(S(C)(=O)=O)c1ccccc12` [Form V, N-[1(R)-[(1,2-dihydro-1-methanesulfonylspiro[3H-indole-3,4'-piperdin]-1'-yl)carbonyl]-2-(phenylmethyloxy)ethyl]-2-amino-2-methylpropanamide methanesulfonate], the hygroscopicity in words result in data set [2] is on record as “hygroscopic”. For the same compound, in data set [3], the “moles of water per mole of compound” value is 1 moles of water per mole.
